# Experimental data taken from publication PMC11842588, “A first-in-class selective inhibitor of ERK1/2 and ERK5 overcomes drug resistance with a single-molecule strategy” (Signal Transduction and Targeted Therapy, 2025).
# Columns and labels:
# Assay in all cases: Kinase profiling
# Format in all cases: biochemical
# TAF1L(h) = target: T1, TAF1L(h) (Homo sapiens, UniProt Q8IZX4)
# T1 construct: purchased Eurofins Cerep SA (KinaseProfiler)
# Procedure: (§1) 380 kinases inhibitory activities of SKLB-D18 were conducted by Eurofins Cerep SA. The result was illustrated by kinase tree (http://www.kinhub.org/kinmap/).
# CaMKIβ(h) = target: T2, CaMKIβ(h) (Homo sapiens, UniProt Q6P2M8)
# T2 construct: purchased Eurofins Cerep SA (KinaseProfiler)
# Procedure: as §1
# GCK(h) = target: T3, GCK(h) (Homo sapiens, UniProt Q12851)
# T3 construct: purchased Eurofins Cerep SA (KinaseProfiler)
# T3 sequence (Q12851 whole entry): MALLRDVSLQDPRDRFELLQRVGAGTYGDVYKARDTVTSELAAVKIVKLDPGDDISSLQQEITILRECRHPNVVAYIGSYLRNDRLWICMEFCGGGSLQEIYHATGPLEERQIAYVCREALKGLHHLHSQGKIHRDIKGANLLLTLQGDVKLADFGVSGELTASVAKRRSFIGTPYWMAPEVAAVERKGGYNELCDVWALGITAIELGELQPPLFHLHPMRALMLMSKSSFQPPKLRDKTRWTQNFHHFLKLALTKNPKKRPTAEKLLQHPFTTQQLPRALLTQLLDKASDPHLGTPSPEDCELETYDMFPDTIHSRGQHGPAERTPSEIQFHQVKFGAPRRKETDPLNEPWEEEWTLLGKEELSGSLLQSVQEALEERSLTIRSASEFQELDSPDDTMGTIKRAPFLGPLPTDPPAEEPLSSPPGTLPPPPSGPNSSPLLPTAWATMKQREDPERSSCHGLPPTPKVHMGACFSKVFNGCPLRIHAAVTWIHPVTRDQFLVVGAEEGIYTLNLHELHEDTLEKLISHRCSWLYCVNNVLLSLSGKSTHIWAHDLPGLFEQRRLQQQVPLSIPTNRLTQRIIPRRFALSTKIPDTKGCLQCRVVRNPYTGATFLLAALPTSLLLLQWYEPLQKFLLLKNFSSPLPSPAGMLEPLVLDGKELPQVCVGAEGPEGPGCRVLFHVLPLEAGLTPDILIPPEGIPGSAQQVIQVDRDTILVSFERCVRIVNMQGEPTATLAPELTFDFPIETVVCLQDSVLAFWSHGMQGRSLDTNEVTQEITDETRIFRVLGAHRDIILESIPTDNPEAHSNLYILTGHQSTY
# Procedure: as §1
# STK16(h) = target: T4, STK16(h) (Homo sapiens, UniProt O75716)
# T4 construct: purchased Eurofins Cerep SA (KinaseProfiler)
# Procedure: as §1
# PKCθ(h) = target: T5, PKCθ(h) (Homo sapiens, UniProt Q04759)
# T5 construct: purchased Eurofins Cerep SA (KinaseProfiler)
# T5 sequence (Q04759 whole entry): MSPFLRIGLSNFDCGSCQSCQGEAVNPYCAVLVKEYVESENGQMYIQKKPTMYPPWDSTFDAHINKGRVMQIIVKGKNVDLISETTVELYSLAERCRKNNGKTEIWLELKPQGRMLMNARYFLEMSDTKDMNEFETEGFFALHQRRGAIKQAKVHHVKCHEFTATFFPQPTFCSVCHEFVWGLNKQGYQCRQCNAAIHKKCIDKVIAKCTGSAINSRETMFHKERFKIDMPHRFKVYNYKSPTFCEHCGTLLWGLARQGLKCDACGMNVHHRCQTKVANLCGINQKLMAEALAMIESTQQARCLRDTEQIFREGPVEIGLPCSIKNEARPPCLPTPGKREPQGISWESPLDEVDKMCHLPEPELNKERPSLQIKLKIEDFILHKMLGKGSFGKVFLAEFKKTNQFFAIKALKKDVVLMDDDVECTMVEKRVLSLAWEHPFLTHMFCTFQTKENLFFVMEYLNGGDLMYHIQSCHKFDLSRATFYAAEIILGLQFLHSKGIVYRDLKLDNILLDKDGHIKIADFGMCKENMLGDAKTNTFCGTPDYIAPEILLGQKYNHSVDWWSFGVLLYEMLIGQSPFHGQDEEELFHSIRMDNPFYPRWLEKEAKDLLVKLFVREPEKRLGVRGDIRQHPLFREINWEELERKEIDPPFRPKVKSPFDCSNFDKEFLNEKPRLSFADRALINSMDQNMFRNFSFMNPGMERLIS
# Procedure: as §1
# Ret(h) = target: T6, Ret(h) (Homo sapiens, UniProt P07949)
# T6 construct: purchased Eurofins Cerep SA (KinaseProfiler)
# Procedure: as §1
# SGK2(h) = target: T7, SGK2(h) (Homo sapiens, UniProt Q9HBY8)
# T7 construct: purchased Eurofins Cerep SA (KinaseProfiler)
# Procedure: as §1
# ALK4(h) = target: T8, ALK4(h) (Homo sapiens, UniProt P36896)
# T8 construct: purchased Eurofins Cerep SA (KinaseProfiler)
# Procedure: as §1
# SIK3(h) = target: T9, SIK3(h) (Homo sapiens, UniProt Q9Y2K2)
# T9 construct: purchased Eurofins Cerep SA (KinaseProfiler)
# Procedure: as §1
# STK25(h) = target: T10, STK25(h) (Homo sapiens, UniProt O00506)
# T10 construct: purchased Eurofins Cerep SA (KinaseProfiler)
# Procedure: as §1
# TAO3(h) = target: T11, TAO3(h) (Homo sapiens, UniProt Q9H2K8)
# T11 construct: purchased Eurofins Cerep SA (KinaseProfiler)
# T11 sequence (Q9H2K8 whole entry): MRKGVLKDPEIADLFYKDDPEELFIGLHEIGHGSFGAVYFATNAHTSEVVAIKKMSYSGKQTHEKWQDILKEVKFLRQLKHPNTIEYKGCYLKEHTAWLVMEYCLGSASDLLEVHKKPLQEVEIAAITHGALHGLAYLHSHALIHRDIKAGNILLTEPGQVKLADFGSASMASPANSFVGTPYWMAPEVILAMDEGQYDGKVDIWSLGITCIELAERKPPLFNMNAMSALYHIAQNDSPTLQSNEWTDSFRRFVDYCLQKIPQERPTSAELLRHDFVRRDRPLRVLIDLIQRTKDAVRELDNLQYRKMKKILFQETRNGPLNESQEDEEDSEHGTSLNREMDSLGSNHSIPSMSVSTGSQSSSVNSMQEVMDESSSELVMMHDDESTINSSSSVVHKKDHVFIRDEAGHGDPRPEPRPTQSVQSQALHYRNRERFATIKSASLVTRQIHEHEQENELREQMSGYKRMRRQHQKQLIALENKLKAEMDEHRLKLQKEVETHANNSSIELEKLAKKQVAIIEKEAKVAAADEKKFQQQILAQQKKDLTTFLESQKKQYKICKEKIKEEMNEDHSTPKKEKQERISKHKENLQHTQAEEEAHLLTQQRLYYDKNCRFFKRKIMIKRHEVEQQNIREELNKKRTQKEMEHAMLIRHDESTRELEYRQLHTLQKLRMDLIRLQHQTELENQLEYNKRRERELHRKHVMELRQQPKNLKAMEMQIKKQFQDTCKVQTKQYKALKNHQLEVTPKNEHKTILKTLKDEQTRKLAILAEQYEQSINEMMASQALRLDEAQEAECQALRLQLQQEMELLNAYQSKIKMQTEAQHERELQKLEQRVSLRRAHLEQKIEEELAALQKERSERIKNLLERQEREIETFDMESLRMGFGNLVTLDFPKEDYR
# Procedure: as §1
# LTK(h) = target: T12, LTK(h) (Homo sapiens, UniProt P29376)
# T12 construct: purchased Eurofins Cerep SA (KinaseProfiler)
# Procedure: as §1
# B-Raf(h) = target: T13, B-Raf(h) (Homo sapiens, UniProt P15056)
# T13 construct: purchased Eurofins Cerep SA (KinaseProfiler)
# Procedure: as §1
# CaMKK2(h) = target: T14, CaMKK2(h) (Homo sapiens, UniProt Q96RR4)
# T14 construct: purchased Eurofins Cerep SA (KinaseProfiler)
# Procedure: as §1
# CDK2/cyclinE(h) = target: T15, CDK2/cyclinE(h) (Homo sapiens, UniProt P24941)
# T15 construct: purchased Eurofins Cerep SA (KinaseProfiler)
# Procedure: as §1
# PKD2(h) = target: T16, PKD2(h) (Homo sapiens, UniProt Q9BZL6)
# T16 construct: purchased Eurofins Cerep SA (KinaseProfiler)
# Procedure: as §1
# DYRK3(h) = target: T17, DYRK3(h) (Homo sapiens, UniProt O43781)
# T17 construct: purchased Eurofins Cerep SA (KinaseProfiler)
# Procedure: as §1
# cSRC(h) = target: T18, cSRC(h) (Homo sapiens, UniProt P12931)
# T18 construct: purchased Eurofins Cerep SA (KinaseProfiler)
# Procedure: as §1
# EGFR(h) = target: T19, EGFR(h) (Homo sapiens, UniProt P00533)
# T19 construct: purchased Eurofins Cerep SA (KinaseProfiler)
# Procedure: as §1
# HIPK4(h) = target: T20, HIPK4(h) (Homo sapiens, UniProt Q8NE63)
# T20 construct: purchased Eurofins Cerep SA (KinaseProfiler)
# Procedure: as §1
# COT(h) = target: T21, COT(h) (Homo sapiens, UniProt P41279)
# T21 construct: purchased Eurofins Cerep SA (KinaseProfiler)
# T21 sequence (P41279 whole entry): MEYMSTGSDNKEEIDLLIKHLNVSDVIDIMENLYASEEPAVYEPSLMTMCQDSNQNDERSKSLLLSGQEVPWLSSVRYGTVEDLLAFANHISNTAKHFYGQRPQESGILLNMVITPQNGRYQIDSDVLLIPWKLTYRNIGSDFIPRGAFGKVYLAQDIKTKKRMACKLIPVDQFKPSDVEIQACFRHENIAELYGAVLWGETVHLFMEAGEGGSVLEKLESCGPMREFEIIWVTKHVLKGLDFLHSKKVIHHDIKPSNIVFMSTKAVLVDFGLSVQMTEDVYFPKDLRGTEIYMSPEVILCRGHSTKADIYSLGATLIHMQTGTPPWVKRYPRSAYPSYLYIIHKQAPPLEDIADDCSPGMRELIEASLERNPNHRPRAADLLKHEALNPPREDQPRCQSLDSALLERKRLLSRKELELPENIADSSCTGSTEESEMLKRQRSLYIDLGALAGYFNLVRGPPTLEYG
# Procedure: as §1
# CaMKIIδ(h) = target: T22, CaMKIIδ(h) (Homo sapiens, UniProt Q13557)
# T22 construct: purchased Eurofins Cerep SA (KinaseProfiler)
# Procedure: as §1
# PIP4K2a(h) = target: T23, PIP4K2a(h) (Homo sapiens, UniProt P48426)
# T23 construct: purchased Eurofins Cerep SA (KinaseProfiler)
# Procedure: as §1
# ARK5(h) = target: T24, ARK5(h) (Homo sapiens, UniProt O60285)
# T24 construct: purchased Eurofins Cerep SA (KinaseProfiler)
# Procedure: as §1
# IRAK1(h) = target: T25, IRAK1(h) (Homo sapiens, UniProt P51617)
# T25 construct: purchased Eurofins Cerep SA (KinaseProfiler)
# Procedure: as §1
# GRK3(h) = target: T26, GRK3(h) (Homo sapiens, UniProt P35626)
# T26 construct: purchased Eurofins Cerep SA (KinaseProfiler)
# Procedure: as §1
# SAPK2b(h) = target: T27, SAPK2b(h) (Homo sapiens, UniProt Q15759)
# T27 construct: purchased Eurofins Cerep SA (KinaseProfiler)
# T27 sequence (Q15759 whole entry): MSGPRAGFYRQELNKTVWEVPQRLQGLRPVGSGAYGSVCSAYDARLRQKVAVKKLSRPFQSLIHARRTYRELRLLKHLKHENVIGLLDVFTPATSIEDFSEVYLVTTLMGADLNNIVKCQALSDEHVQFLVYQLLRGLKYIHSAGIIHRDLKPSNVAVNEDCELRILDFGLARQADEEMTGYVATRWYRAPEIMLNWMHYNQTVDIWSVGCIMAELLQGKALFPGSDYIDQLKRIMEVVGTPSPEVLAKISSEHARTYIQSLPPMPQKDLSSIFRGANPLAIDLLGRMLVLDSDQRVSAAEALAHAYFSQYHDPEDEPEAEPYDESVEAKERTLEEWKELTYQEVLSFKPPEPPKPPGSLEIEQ
# Procedure: as §1
# PKCδ(h) = target: T28, PKCδ(h) (Homo sapiens, UniProt Q05655)
# T28 construct: purchased Eurofins Cerep SA (KinaseProfiler)
# Procedure: as §1
# AMPKα2(h) = target: T29, AMPKα2(h) (Homo sapiens, UniProt P54646)
# T29 construct: purchased Eurofins Cerep SA (KinaseProfiler)
# Procedure: as §1
# OSR1(h) = target: T30, OSR1(h) (Homo sapiens, UniProt O95747)
# T30 construct: purchased Eurofins Cerep SA (KinaseProfiler)
# T30 sequence (O95747 whole entry): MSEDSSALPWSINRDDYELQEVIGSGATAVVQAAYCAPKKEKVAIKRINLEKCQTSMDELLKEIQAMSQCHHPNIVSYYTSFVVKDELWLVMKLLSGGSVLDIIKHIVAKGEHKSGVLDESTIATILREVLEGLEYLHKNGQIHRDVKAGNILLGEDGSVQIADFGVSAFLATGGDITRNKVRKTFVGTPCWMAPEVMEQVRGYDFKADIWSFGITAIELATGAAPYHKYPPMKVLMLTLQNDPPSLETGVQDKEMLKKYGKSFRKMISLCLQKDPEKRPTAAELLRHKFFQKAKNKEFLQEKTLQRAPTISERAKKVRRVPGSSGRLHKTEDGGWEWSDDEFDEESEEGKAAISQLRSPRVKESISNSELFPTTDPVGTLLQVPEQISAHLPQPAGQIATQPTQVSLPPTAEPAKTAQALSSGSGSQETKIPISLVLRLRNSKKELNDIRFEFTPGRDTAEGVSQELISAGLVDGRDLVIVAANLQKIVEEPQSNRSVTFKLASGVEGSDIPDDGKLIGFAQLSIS
# Procedure: as §1
# PRAK(h) = target: T31, PRAK(h) (Homo sapiens, UniProt Q8IW41)
# T31 construct: purchased Eurofins Cerep SA (KinaseProfiler)
# Procedure: as §1
# LIMK2(h) = target: T32, LIMK2(h) (Homo sapiens, UniProt P53671)
# T32 construct: purchased Eurofins Cerep SA (KinaseProfiler)
# T32 sequence (P53671 whole entry): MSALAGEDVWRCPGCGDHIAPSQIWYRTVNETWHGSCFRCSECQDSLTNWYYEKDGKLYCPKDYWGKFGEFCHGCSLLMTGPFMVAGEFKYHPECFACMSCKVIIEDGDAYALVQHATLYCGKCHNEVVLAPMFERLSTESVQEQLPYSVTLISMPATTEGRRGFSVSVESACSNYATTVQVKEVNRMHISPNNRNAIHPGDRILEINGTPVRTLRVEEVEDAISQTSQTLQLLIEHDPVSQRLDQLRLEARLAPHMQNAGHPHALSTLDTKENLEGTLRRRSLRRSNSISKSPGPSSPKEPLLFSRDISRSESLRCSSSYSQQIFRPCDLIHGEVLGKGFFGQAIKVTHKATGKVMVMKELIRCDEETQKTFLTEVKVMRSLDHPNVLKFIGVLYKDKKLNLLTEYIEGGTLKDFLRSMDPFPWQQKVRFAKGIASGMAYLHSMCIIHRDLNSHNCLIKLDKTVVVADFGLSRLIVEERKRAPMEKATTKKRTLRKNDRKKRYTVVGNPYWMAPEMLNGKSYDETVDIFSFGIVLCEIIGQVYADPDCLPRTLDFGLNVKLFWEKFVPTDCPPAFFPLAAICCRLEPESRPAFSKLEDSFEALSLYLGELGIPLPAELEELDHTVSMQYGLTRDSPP
# Procedure: as §1
# HRI(h) = target: T33, HRI(h) (Homo sapiens, UniProt Q9BQI3)
# T33 construct: purchased Eurofins Cerep SA (KinaseProfiler)
# Procedure: as §1
# PAK3(h) = target: T34, PAK3(h) (Homo sapiens, UniProt O75914)
# T34 construct: purchased Eurofins Cerep SA (KinaseProfiler)
# Procedure: as §1
# Plk4(h) = target: T35, Plk4(h) (Homo sapiens, UniProt O00444)
# T35 construct: purchased Eurofins Cerep SA (KinaseProfiler)
# Procedure: as §1
# JNK3(h) = target: T36, JNK3(h) (Homo sapiens, UniProt P53779)
# T36 construct: purchased Eurofins Cerep SA (KinaseProfiler)
# Procedure: as §1
# MAP4K3(h) = target: T37, MAP4K3(h) (Homo sapiens, UniProt Q8IVH8)
# T37 construct: purchased Eurofins Cerep SA (KinaseProfiler)
# Procedure: as §1
# MEKK2(h) = target: T38, MEKK2(h) (Homo sapiens, UniProt Q9Y2U5)
# T38 construct: purchased Eurofins Cerep SA (KinaseProfiler)
# T38 sequence (Q9Y2U5 whole entry): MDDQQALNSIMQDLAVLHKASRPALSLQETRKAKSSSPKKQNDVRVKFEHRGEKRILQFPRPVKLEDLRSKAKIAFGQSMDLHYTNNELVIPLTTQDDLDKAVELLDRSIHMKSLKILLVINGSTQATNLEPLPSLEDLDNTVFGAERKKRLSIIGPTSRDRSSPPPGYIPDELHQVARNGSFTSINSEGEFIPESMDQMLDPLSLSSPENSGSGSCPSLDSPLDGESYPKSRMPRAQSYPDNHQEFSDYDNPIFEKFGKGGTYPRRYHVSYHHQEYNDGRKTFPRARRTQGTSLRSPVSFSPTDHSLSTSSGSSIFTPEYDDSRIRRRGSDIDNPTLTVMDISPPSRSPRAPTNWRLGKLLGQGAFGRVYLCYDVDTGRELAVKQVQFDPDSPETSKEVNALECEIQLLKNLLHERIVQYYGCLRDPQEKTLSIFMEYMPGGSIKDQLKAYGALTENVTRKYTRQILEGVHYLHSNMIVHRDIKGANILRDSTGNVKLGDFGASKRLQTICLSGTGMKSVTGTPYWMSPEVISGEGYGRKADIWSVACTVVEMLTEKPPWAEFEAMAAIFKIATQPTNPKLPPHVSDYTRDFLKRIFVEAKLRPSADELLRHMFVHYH
# Procedure: as §1
# MAPKAP-K3(h) = target: T39, MAPKAP-K3(h) (Homo sapiens, UniProt Q16644)
# T39 construct: purchased Eurofins Cerep SA (KinaseProfiler)
# Procedure: as §1
# CK1ε(h) = target: T40, CK1ε(h) (Homo sapiens, UniProt P49674)
# T40 construct: purchased Eurofins Cerep SA (KinaseProfiler)
# Procedure: as §1
# AAK1(h) = target: T41, AAK1(h) (Homo sapiens, UniProt Q2M2I8)
# T41 construct: purchased Eurofins Cerep SA (KinaseProfiler)
# Procedure: as §1
structure (smiles),measurement,setting,value
"CN(C)Cc1cccc(Nc2ncc(Cl)c(-c3csc(C(=O)NN4CCOCC4)c3)n2)c1 [SKLB-D18, 4-(5-chloro-2-((3-((dimethylamino)methyl)phenyl)amino)pyrimidin-4-yl)-N-morpholinothiophene-2-carboxamide]",inhibition at 1 µM,TAF1L(h),53%
same,inhibition at 1 µM,CaMKIβ(h),1%
same,inhibition at 1 µM,GCK(h),57%
same,inhibition at 1 µM,STK16(h),85%
same,inhibition at 1 µM,PKCθ(h),7%
same,inhibition at 1 µM,Ret(h),81%
same,inhibition at 1 µM,SGK2(h),11%
same,inhibition at 1 µM,ALK4(h),26%
same,inhibition at 1 µM,SIK3(h),22%
same,inhibition at 1 µM,STK25(h),7%
same,inhibition at 1 µM,TAO3(h),36%
same,inhibition at 1 µM,LTK(h),38%
same,inhibition at 1 µM,B-Raf(h),59%
same,inhibition at 1 µM,CaMKK2(h),21%
same,inhibition at 1 µM,CDK2/cyclinE(h),48%
same,inhibition at 1 µM,PKD2(h),66%
same,inhibition at 1 µM,DYRK3(h),49%
same,inhibition at 1 µM,cSRC(h),55%
same,inhibition at 1 µM,EGFR(h),-10%
same,inhibition at 1 µM,HIPK4(h),67%
same,inhibition at 1 µM,COT(h),-5%
same,inhibition at 1 µM,CaMKIIδ(h),47%
same,inhibition at 1 µM,PIP4K2a(h),-1%
same,inhibition at 1 µM,ARK5(h),72%
same,inhibition at 1 µM,IRAK1(h),60%
same,inhibition at 1 µM,GRK3(h),2%
same,inhibition at 1 µM,SAPK2b(h),4%
same,inhibition at 1 µM,PKCδ(h),23%
same,inhibition at 1 µM,AMPKα2(h),60%
same,inhibition at 1 µM,OSR1(h),28%
same,inhibition at 1 µM,PRAK(h),-2%
same,inhibition at 1 µM,LIMK2(h),17%
same,inhibition at 1 µM,HRI(h),38%
same,inhibition at 1 µM,PAK3(h),27%
same,inhibition at 1 µM,Plk4(h),38%
same,inhibition at 1 µM,JNK3(h),66%
same,inhibition at 1 µM,MAP4K3(h),60%
same,inhibition at 1 µM,MEKK2(h),53%
same,inhibition at 1 µM,MAPKAP-K3(h),-10%
same,inhibition at 1 µM,CK1ε(h),18%
same,inhibition at 1 µM,AAK1(h),58%
